Data taken from ChEMBL document CHEMBL2311262, “Structure activity relationship studies of tricyclic bispyran sulfone γ-secretase inhibitors” (Bioorg Med Chem Lett, 2013).

What was measured:
Gamma-secretase [1] = assay: Inhibition of gamma secretase-mediated amyloid beta40 production in HEK293 cells transfected with human APPSOW and APPLON after 5 hrs by sandwich immunoassay; format: cell-based
Gamma-secretase [2] = assay: Inhibition of gamma secretase-mediated amyloid beta42 production in HEK293 cells transfected with human APPSOW and APPLON after 5 hrs by sandwich immunoassay; format: cell-based
Gamma-secretase [3] = assay: Inhibition of gamma secretase-mediated amyloid beta40 production in HEK293 cell membranes transfected with human APPSOW and APPLON mutant after 5 hrs by sandwich immunoassay; format: cell-based
Mus musculus [4] = assay: Inhibition of gamma secretase in B6C3F1 mouse assessed as […] in plasma amyloid beta40 production at 10 mg/kg, po measured at 3 hrs; format: functional
Homo sapiens = species on record: Homo sapiens; assay: Selectivity ratio of inhibition of PS2 (unknown origin) to inhibition of PS1 (unknown origin)
[5] = Ratio of drug level in brain to plasma in rat at 6 hrs; format: ADME; conditions: read-out: BPR
[6] = Tmax in monkey at 10 mg/kg, po; format: ADME, organism-based, Macaca mulatta; design: dose 10 mg/kg, route oral; conditions: rhesus monkey, in vivo
Rattus norvegicus [7] = assay: Inhibition of gamma secretase in po dosed CD rat assessed as lowering of plasma amyloid beta40 production measured at 3 hrs; format: functional
[8] = Oral bioavailability in monkey at 10 mg/kg; format: ADME, organism-based, Macaca mulatta; conditions: rhesus monkey, in vivo
[9] = Inhibition of CYP450 (unknown origin); format: ADME, Homo sapiens
Rattus norvegicus [10] = assay: Inhibition of gamma secretase in po dosed CD rat assessed as lowering of CSF amyloid beta40 production measured at 3 hrs; format: functional
[11] = Half life in monkey at 10 mg/kg, po; format: ADME, organism-based, Macaca mulatta; design: dose 10 mg/kg, route oral; conditions: rhesus monkey, in vivo
[12] = Cmax in monkey at 10 mg/kg, po; format: ADME, organism-based, Macaca mulatta; design: dose 10 mg/kg, route oral; conditions: rhesus monkey, in vivo
Gamma-secretase [13] = assay: Inhibition of gamma secretase-mediated notch cleavage in HEK293 cells expressing human notch protein with truncated extracellular EGF repeat domain by sandwich immunoassay; format: cell-based
Mus musculus [14] = assay: Inhibition of gamma secretase in po dosed B6C3F1 mouse assessed as lowering of plasma amyloid beta40 production measured at 3 hrs; format: functional
[15] = Volume of distribution at steady state in rat at 5 mg/kg, iv; format: ADME, organism-based; design: dose 5 mg/kg, route intravenous; conditions: in vivo, read-out: Vdss
[16] = AUC (0 to infinity) in monkey at 10 mg/kg, po; format: ADME, organism-based, Macaca mulatta; design: time infinity, dose 10 mg/kg, route oral; conditions: rhesus monkey, plasma
[17] = Clearance in monkey at 2.5 mg/kg, iv; format: ADME, organism-based, Macaca mulatta; design: dose 2.5 mg/kg, route intravenous; conditions: rhesus monkey, in vivo
[18] = Half life in dog at 10 mg/kg, po; format: ADME, organism-based, Canis lupus familiaris; design: dose 10 mg/kg, route oral; conditions: in vivo
[19] = Tmax in rat at 10 mg/kg, po; format: ADME, organism-based; design: dose 10 mg/kg, route oral; conditions: in vivo
hERG (KCNH2) = hERG (KCNH2) (Homo sapiens, UniProt Q12809); assay: Inhibition of human ERG at 10 uM by voltage clamp assay
Sequence of hERG (KCNH2) (Q12809 whole entry): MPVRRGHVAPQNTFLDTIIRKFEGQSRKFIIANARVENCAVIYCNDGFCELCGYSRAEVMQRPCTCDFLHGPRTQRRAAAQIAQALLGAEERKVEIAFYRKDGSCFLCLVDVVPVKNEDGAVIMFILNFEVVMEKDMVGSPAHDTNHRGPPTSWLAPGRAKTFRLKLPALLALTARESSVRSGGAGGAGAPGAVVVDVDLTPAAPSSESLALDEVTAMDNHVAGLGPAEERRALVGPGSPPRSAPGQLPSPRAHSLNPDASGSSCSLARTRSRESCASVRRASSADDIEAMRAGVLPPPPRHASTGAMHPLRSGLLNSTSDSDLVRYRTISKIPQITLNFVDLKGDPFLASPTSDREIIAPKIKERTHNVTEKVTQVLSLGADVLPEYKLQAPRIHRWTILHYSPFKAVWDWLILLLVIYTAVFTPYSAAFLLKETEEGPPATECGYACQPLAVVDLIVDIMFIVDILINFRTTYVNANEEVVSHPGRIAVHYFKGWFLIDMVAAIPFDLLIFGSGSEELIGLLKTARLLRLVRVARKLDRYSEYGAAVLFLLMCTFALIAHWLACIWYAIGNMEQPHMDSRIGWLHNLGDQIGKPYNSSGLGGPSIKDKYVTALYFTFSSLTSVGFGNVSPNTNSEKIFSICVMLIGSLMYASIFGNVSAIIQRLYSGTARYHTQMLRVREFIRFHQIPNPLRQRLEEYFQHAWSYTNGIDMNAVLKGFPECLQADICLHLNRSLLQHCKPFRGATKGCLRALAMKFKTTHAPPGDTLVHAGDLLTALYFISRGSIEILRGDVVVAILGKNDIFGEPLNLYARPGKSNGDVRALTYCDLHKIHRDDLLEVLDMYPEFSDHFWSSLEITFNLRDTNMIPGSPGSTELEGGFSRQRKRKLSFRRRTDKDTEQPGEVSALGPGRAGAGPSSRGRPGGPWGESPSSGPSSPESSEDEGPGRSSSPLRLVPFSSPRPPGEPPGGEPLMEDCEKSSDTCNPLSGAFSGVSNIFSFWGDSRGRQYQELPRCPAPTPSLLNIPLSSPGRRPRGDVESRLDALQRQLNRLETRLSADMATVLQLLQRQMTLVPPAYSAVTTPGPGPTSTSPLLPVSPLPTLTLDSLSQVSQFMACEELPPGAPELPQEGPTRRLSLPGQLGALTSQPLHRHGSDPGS

[20] = Oral bioavailability in dog at 10 mg/kg; format: ADME, organism-based, Canis lupus familiaris; conditions: in vivo
[21] = Oral bioavailability in rat at 10 mg/kg; format: ADME, organism-based; conditions: in vivo
Mus musculus [22] = assay: Inhibition of gamma secretase in po dosed B6C3F1 mouse assessed as lowering of cortex amyloid beta40 production measured at 3 hrs; format: functional
[23] = Volume of distribution at steady state in monkey at 2.5 mg/kg, iv; format: ADME, organism-based, Macaca mulatta; design: dose 2.5 mg/kg, route intravenous; conditions: rhesus monkey, in vivo, read-out: Vdss
[24] = Volume of distribution at steady state in dog at 2.5 mg/kg, iv; format: ADME, organism-based, Canis lupus familiaris; design: dose 2.5 mg/kg, route intravenous; conditions: in vivo, read-out: Vdss
[25] = Clearance in rat at 5 mg/kg, iv; format: ADME, organism-based; design: dose 5 mg/kg, route intravenous; conditions: in vivo
[26] = Half life in rat at 10 mg/kg, po; format: ADME, organism-based; design: dose 10 mg/kg, route oral; conditions: in vivo
[27] = AUC (0 to infinity) in dog at 10 mg/kg, po; format: ADME, organism-based, Canis lupus familiaris; design: time infinity, dose 10 mg/kg, route oral; conditions: plasma
[28] = Clearance in dog at 2.5 mg/kg, iv; format: ADME, organism-based, Canis lupus familiaris; design: dose 2.5 mg/kg, route intravenous; conditions: in vivo
[29] = Cmax in rat at 10 mg/kg, po; format: ADME, organism-based; design: dose 10 mg/kg, route oral; conditions: in vivo
[30] = Tmax in dog at 10 mg/kg, po; format: ADME, organism-based, Canis lupus familiaris; design: dose 10 mg/kg, route oral; conditions: in vivo
[31] = Cmax in dog at 10 mg/kg, po; format: ADME, organism-based, Canis lupus familiaris; design: dose 10 mg/kg, route oral; conditions: in vivo
Rattus norvegicus [32] = assay: Inhibition of gamma secretase in po dosed CD rat assessed as lowering of cortex amyloid beta40 production measured at 3 hrs; format: functional
[33] = AUC (0 to infinity) in rat at 10 mg/kg, po; format: ADME, organism-based; design: time infinity, dose 10 mg/kg, route oral; conditions: plasma

CS(=O)(=O)CC[C@@H]1OCC[C@@]2(S(=O)(=O)c3ccc(C#N)c(C#N)c3)c3c(F)ccc(F)c3OC[C@@H]12
IC50 (Gamma-secretase [1]): 400 nM | IC50 (Gamma-secretase [2]): 120 nM | IC50 (Gamma-secretase [3]): 580 nM

CCCS(=O)(=O)CC[C@@H]1OCC[C@@]2(S(=O)(=O)c3ccc(Cl)cc3)c3c(F)ccc(F)c3OC[C@@H]12
IC50 (Gamma-secretase [1]): 11 nM | IC50 (Gamma-secretase [2]): 5 nM | IC50 (Gamma-secretase [3]): 6.8 nM

CS(=O)(=O)CC[C@@H]1OCC[C@@]2(S(=O)(=O)c3ccc(F)c(F)c3)c3c(F)ccc(F)c3OC[C@@H]12
IC50 (Gamma-secretase [1]): 14 nM | IC50 (Gamma-secretase [2]): 1.4 nM | IC50 (Gamma-secretase [3]): 31 nM

O=S(=O)(CC[C@@H]1OCC[C@@]2(S(=O)(=O)c3ccc(Cl)cc3)c3c(F)ccc(F)c3OC[C@@H]12)c1ncc[nH]1
IC50 (Gamma-secretase [1]): 1.5 nM | IC50 (Gamma-secretase [2]): 1.8 nM | IC50 (Gamma-secretase [3]): 1.4 nM

O=S(=O)(CC[C@@H]1OCC[C@@]2(S(=O)(=O)c3ccc(Cl)cc3)c3c(F)ccc(F)c3OC[C@@H]12)CC(F)(F)F
IC50 (Gamma-secretase [1]): 22 nM | IC50 (Gamma-secretase [2]): 6.4 nM | IC50 (Gamma-secretase [3]): 7.3 nM

CS(=O)(=O)CC[C@@H]1OCC[C@@]2(S(=O)(=O)c3ccc(Br)cc3)c3c(F)ccc(F)c3OC[C@@H]12
IC50 (Gamma-secretase [1]): 2.5 nM | IC50 (Gamma-secretase [2]): 0.6 nM | IC50 (Gamma-secretase [3]): 2.9 nM

O=S(=O)(CC[C@@H]1OCC[C@@]2(S(=O)(=O)c3ccc(Cl)cc3)c3c(F)ccc(F)c3OC[C@@H]12)C(F)(F)F
IC50 (Gamma-secretase [1]): 13 nM | IC50 (Gamma-secretase [2]): 4.4 nM | IC50 (Gamma-secretase [3]): 7.4 nM

O=S(=O)(CC[C@@H]1OCC[C@@]2(S(=O)(=O)c3ccc(Cl)cc3)c3c(F)ccc(F)c3OC[C@@H]12)c1ncn[nH]1
IC50 (Gamma-secretase [1]): 8.9 nM | inhibition in vivo at 10 mg/kg (Mus musculus [4]): 30% | IC50 (Gamma-secretase [2]): 4.7 nM | IC50 (Gamma-secretase [3]): 2.1 nM

COc1ccc(S(=O)(=O)[C@@]23CCO[C@@H](CCS(C)(=O)=O)[C@@H]2COc2c(F)ccc(F)c23)cc1
IC50 (Gamma-secretase [3]): 360 nM

O=S(=O)(CCCO)CC[C@@H]1OCC[C@@]2(S(=O)(=O)c3ccc(Cl)cc3)c3c(F)ccc(F)c3OC[C@@H]12
IC50 (Gamma-secretase [3]): 4.5 nM

CS(=O)(=O)CC[C@@H]1OCC[C@@]2(S(=O)(=O)c3ccc(Cl)cc3)c3c(F)ccc(F)c3OC[C@@H]12
IC50 (Gamma-secretase [1]): 4 nM | IC50 (Gamma-secretase [2]): 1 nM | IC50 (Gamma-secretase [3]): 1.3 nM | Selectivity ratio (Homo sapiens): 19

CCS(=O)(=O)CC[C@@H]1OCC[C@@]2(S(=O)(=O)c3ccc(Cl)cc3)c3c(F)ccc(F)c3OC[C@@H]12
IC50 (Gamma-secretase [1]): 5 nM | IC50 (Gamma-secretase [2]): 2 nM | IC50 (Gamma-secretase [3]): 3 nM

O=C(O)CS(=O)(=O)CC[C@@H]1OCC[C@@]2(S(=O)(=O)c3ccc(Cl)cc3)c3c(F)ccc(F)c3OC[C@@H]12
Kp at 6 h [5]: 0.1 | IC50 (Gamma-secretase [1]): 38 nM | inhibition in vivo at 10 mg/kg (Mus musculus [4]): 47% | IC50 (Gamma-secretase [2]): 22 nM | IC50 (Gamma-secretase [3]): 2.7 nM

O=S(=O)(CC[C@@H]1OCC[C@@]2(S(=O)(=O)c3ccc(Cl)cc3)c3c(F)ccc(F)c3OC[C@@H]12)c1cnn[nH]1
IC50 (Gamma-secretase [1]): 13 nM | IC50 (Gamma-secretase [2]): 4.7 nM | IC50 (Gamma-secretase [3]): 4.3 nM

CS(=O)(=O)CC[C@@H]1OCC[C@@]2(S(=O)(=O)c3ccc(C#N)cc3)c3c(F)ccc(F)c3OC[C@@H]12
IC50 (Gamma-secretase [1]): 25 nM | IC50 (Gamma-secretase [2]): 8.9 nM | IC50 (Gamma-secretase [3]): 66 nM

CS(=O)(=O)CC[C@@H]1OCC[C@@]2(S(=O)(=O)c3ccc(C(F)(F)F)cc3)c3c(F)ccc(F)c3OC[C@@H]12
Tmax [6]: 5.3 h | ED50 (Rattus norvegicus [7]): 1.9 mg/kg | IC50 (Gamma-secretase [1]): 11 nM | bioavailability [8]: 70% | IC50 [9]: > 10000 nM | ED50 (Rattus norvegicus [10]): 7.4 mg/kg | half-life [11]: 17 h | Cmax [12]: 810 nM | IC50 (Gamma-secretase [13]): 31 nM | ED50 (Mus musculus [14]): 7.7 mg/kg | Vd [15]: 8.9 L/kg | AUC(0-inf) [16]: 18 µM·h | clearance [17]: 6.5 mL/min/kg | half-life [18]: 17 h | Tmax [19]: 2 h | IC50 (Gamma-secretase [2]): 3.5 nM | inhibition at 10 µM (hERG (KCNH2)): 31% | bioavailability [20]: 100% | bioavailability [21]: 44% | ED50 (Mus musculus [22]): 8 mg/kg | Vd [23]: 6.6 L/kg | Vd [24]: 6.1 L/kg | clearance [25]: 40 mL/min/kg | IC50 (Gamma-secretase [3]): 15 nM | half-life [26]: 3.6 h | AUC(0-inf) [27]: 46 µM·h | clearance [28]: 4.6 mL/min/kg | Cmax [29]: 680 nM | Tmax [30]: 2.3 h | Cmax [31]: 1500 nM | ED50 (Rattus norvegicus [32]): 2.8 mg/kg | AUC(0-inf) [33]: 3.5 µM·h

CS(=O)(=O)CC[C@@H]1OCC[C@@]2(S(=O)(=O)c3cc(F)cc(F)c3)c3c(F)ccc(F)c3OC[C@@H]12
IC50 (Gamma-secretase [3]): 250 nM

O=S(=O)(CC[C@@H]1OCC[C@@]2(S(=O)(=O)c3ccc(Cl)cc3)c3c(F)ccc(F)c3OC[C@@H]12)C1CC1
IC50 (Gamma-secretase [3]): 2.1 nM

O=S(=O)(CCO)CC[C@@H]1OCC[C@@]2(S(=O)(=O)c3ccc(Cl)cc3)c3c(F)ccc(F)c3OC[C@@H]12
Kp at 6 h [5]: 0.1 | IC50 (Gamma-secretase [1]): 1.2 nM | IC50 (Gamma-secretase [2]): 0.9 nM | IC50 (Gamma-secretase [3]): 1 nM

CS(=O)(=O)CC[C@@H]1OCC[C@@]2(S(=O)(=O)c3ccc(OCC(F)(F)F)cc3)c3c(F)ccc(F)c3OC[C@@H]12
IC50 (Gamma-secretase [3]): 5100 nM

CC(C)S(=O)(=O)CC[C@@H]1OCC[C@@]2(S(=O)(=O)c3ccc(Cl)cc3)c3c(F)ccc(F)c3OC[C@@H]12
IC50 (Gamma-secretase [1]): 8 nM | IC50 (Gamma-secretase [2]): 3 nM | IC50 (Gamma-secretase [3]): 5.5 nM
